Experimental data published in ChEMBL document CHEMBL5584237, “Design, synthesis, biological evaluation, and in silico studies of novel pyridopyridine derivatives as anticancer candidates targeting FMS kinase” (Eur J Med Chem, 2024).
The source made the active and inactive calls. No cut-off for these calls is given here.

How the values were obtained:
[1] = Selectivity index, ratio of IC50 for human WI-38 cells to IC50 for human HT-29 cells; assay type: toxicity; settings: WI-38 cells and HT-29 cells, read-out: Ratio IC50
[2] = tested on: MCF7; assay: Antiproliferative activity against human MCF7 cells assessed as cell growth inhibition; assay type: functional
[3] = Selectivity index, ratio of IC50 for human HS27 cells to IC50 for human OVCAR-3 cells
[4] = Selectivity index, ratio of IC50 for human WI-38 cells to IC50 for human SN12C cells
[5] = Selectivity index, ratio of IC50 for human WI-38 cells to IC50 for human 786-0 cells
[6] = tested on: MDA-MB-468; assay: Antiproliferative activity against human MDA-MB-468 cells assessed as cell growth inhibition; assay type: functional
[7] = Selectivity index, ratio of IC50 for human WI-38 cells to IC50 for human SK-MEL-28 cells
[8] = Selectivity index, ratio of IC50 for human WI-38 cells to IC50 for human HCT-15 cells
[9] = tested on: Hep 3B2; assay: Cell cycle arrest in human Hep3B cells assessed as upregulation of cyclin B1 expression at 3.38 uM measured after 48 hrs by Western blot analysis; assay type: functional, cell-based
[10] = tested on: COLO 205; assay: Antiproliferative activity against human COLO 205 cells assessed as cell growth inhibition; assay type: functional
[11] = tested on: SF-295; assay: Antiproliferative activity against human SF-295 cells assessed as cell growth inhibition; assay type: functional
[12] = tested on: Hep 3B2; assay: Induction of apoptosis in human Hep3B cells assessed as increase in cleaved caspase-3 expression at 3.38 uM measured after 48 hrs by Western blot analysis relative to control; assay type: functional
[13] = tested on: SR; assay: Antiproliferative activity against human SR cells assessed as cell growth inhibition; assay type: functional
[14] = Selectivity index, ratio of IC50 for human WI-38 cells to IC50 for human LOX IMVI cells
[15] = Selectivity index, ratio of IC50 for human HS27 cells to IC50 for human Malme-3M cells
[16] = tested on: OVCAR-4; assay: Antiproliferative activity against human OVCAR-4 cells assessed as cell growth inhibition; assay type: functional
[17] = tested on: RXF 393; assay: Antiproliferative activity against human RXF 393 cells assessed as cell growth inhibition; assay type: functional
[18] = tested on: OVCAR-3; assay: Antiproliferative activity against human OVCAR-3 cells assessed as cell growth inhibition; assay type: functional
[19] = Selectivity index, ratio of IC50 for human HS27 cells to IC50 for human 786-0 cells
[20] = Selectivity index, ratio of IC50 for human HS27 cells to IC50 for human COLO 205 cells
[21] = tested on: A549; assay: Antiproliferative activity against human A549 cells assessed as cell growth inhibition; assay type: functional
[22] = tested on: Malme-3M; assay: Antiproliferative activity against human Malme-3M cells assessed as cell growth inhibition; assay type: functional
[23] = Selectivity index, ratio of IC50 for human HS27 cells to IC50 for human MDA-MB-468 cells
[24] = Selectivity index, ratio of IC50 for human HS27 cells to IC50 for human SK-MEL-28 cells
[25] = Selectivity index, ratio of IC50 for human WI-38 cells to IC50 for human OVCAR-3 cells
[26] = Selectivity index, ratio of IC50 for human WI-38 cells to IC50 for human SW-620 cells
[27] = Selectivity index, ratio of IC50 for human WI-38 cells to IC50 for human MDA-MB-231 cells; assay type: toxicity; settings: WI-38 cells and MDA-MB-231 cells, read-out: Ratio IC50
[28] = Selectivity index, ratio of IC50 for human WI-38 cells to IC50 for human OVCAR-4 cells
[29] = Selectivity index, ratio of IC50 for human HS27 cells to IC50 for human HT-29 cells
[30] = tested on: CCRF-CEM; assay: Antiproliferative activity against human CCRF-CEM cells assessed as cell growth inhibition; assay type: functional
[31] = tested on: K562; assay: Antiproliferative activity against human K562 cells assessed as cell growth inhibition; assay type: functional
[32] = Selectivity index, ratio of IC50 for human WI-38 cells to IC50 for human CAKI-1 cells
[33] = Selectivity index, ratio of IC50 for human WI-38 cells to IC50 for human SF-295 cells
[34] = tested on: M14; assay: Antiproliferative activity against human M14 cells assessed as cell growth inhibition; assay type: functional
[35] = Selectivity index, ratio of IC50 for human WI-38 cells to IC50 for human MCF7 cells; assay type: toxicity; settings: WI-38 cells and MCF7 cells, read-out: Ratio IC50
[36] = tested on: SN12C; assay: Antiproliferative activity against human SN12C cells assessed as cell growth inhibition; assay type: functional
[37] = tested on: NCI-H460; assay: Antiproliferative activity against human NCI-H460 cells assessed as cell growth inhibition; assay type: functional
[38] = Selectivity index, ratio of IC50 for human WI-38 cells to IC50 for human K562 cells; assay type: toxicity; settings: WI-38 cells and K562 cells, read-out: Ratio IC50
[39] = tested on: MOLT-4; assay: Antiproliferative activity against human MOLT-4 cells assessed as cell growth inhibition; assay type: functional
[40] = Selectivity index, ratio of IC50 for human HS27 cells to IC50 for human NCI-H460 cells
[41] = tested on: HepG2; assay: cells; settings: Homo sapiens, HepG2, 48 h
Description: Antiproliferative activity against human HepG2 cells assessed as cell growth inhibition measured after 48 hrs by MTT assay

[42] = tested on: SW-620; assay: Antiproliferative activity against human SW-620 cells assessed as cell growth inhibition; assay type: functional
[43] = Selectivity index, ratio of IC50 for human HS27 cells to IC50 for human DU-145 cells
[44] = tested on: HCT-15; assay: Antiproliferative activity against human HCT-15 cells assessed as cell growth inhibition; assay type: functional
[45] = tested on: MDA-MB-435; assay: Antiproliferative activity against human MDA-MB-435 cells assessed as cell growth inhibition; assay type: functional
[46] = Selectivity index, ratio of IC50 for human HS27 cells to IC50 for human MDA-MB-435 cells
[47] = Selectivity index, ratio of IC50 for human WI-38 cells to IC50 for human CCRF-CEM cells; assay type: toxicity; settings: WI-38 cells and CCRF-CEM cells, read-out: Ratio IC50
[48] = tested on: Hep 3B2; assay: Cell cycle arrest in human Hep3B cells assessed as downregulation of cyclin D1 expression at 3.38 uM measured after 48 hrs by Western blot analysis; assay type: functional, cell-based
[49] = tested on: Hep 3B2; assay: Induction of apoptosis in human Hep3B cells assessed as increase in cleaved PARP expression measured after 48 hrs by Western blot analysis; assay type: functional, cell-based

`CCN1CCN(c2ccc(NC(=O)Nc3ccc(-c4cc(C(=O)NC(C)C)c5ncccc5n4)cc3)cc2C(F)(F)F)CC1` gave a selectivity ratio [1] of 18.8, a GI50 [2] of 630 nM and a TGI [2] of 1500 nM. For the same molecule, the “Ratio IC50” value [3] was 3.05, the “Ratio IC50” value [4] was 10.52 and the “Ratio IC50” value [5] was 10.52. For the same molecule, the GI50 [6] was 770 nM, the TGI [6] was 1850 nM and the “Ratio IC50” value [7] was 8.62. The “Ratio IC50” value [8] was 18.84, the Activity [9] was “Active” and the GI50 [10] was 930 nM. It also gave a TGI [10] of 2710 nM, a GI50 [11] of 580 nM and a TGI [11] of 1140 nM. The “fold change (FC)” value [12] was 473.5, the TGI [13] was 12100 nM and the “Ratio IC50” value [14] was 8.62. The “Ratio IC50” value [15] was 4.47, the GI50 [16] was 880 nM and the TGI [16] was 2450 nM. It also gave a GI50 [17] of 650 nM, a TGI [17] of 1730 nM and a GI50 [18] of 640 nM. The TGI [18] was 1360 nM, the “Ratio IC50” value [19] was 5.45 and the “Ratio IC50” value [20] was 9.77. The TGI [21] was 5770 nM, the GI50 [22] was 580 nM and the TGI [22] was 1050 nM. For the same molecule, the “Ratio IC50” value [23] was 5.22, the “Ratio IC50” value [24] was 4.47 and the “Ratio IC50” value [25] was 5.89. The “Ratio IC50” value [26] was 18.84, the selectivity ratio [27] was 10.1 and the “Ratio IC50” value [28] was 5.89. For the same molecule, the “Ratio IC50” value [29] was 9.77, the TGI [30] was 3100 nM and the GI50 [31] was 1000 nM. For the same molecule, the TGI [31] was 34500 nM, the “Ratio IC50” value [32] was 10.52 and the “Ratio IC50” value [33] was 8.71. It also gave a GI50 [34] of 720 nM, a TGI [34] of 1900 nM and a selectivity ratio [35] of 10.1. For the same molecule, the GI50 [36] was 670 nM, the TGI [36] was 1380 nM and the GI50 [37] was 620 nM. The TGI [37] was 1180 nM, the selectivity ratio [38] was 15.4 and the TGI [39] was 30600 nM. The “Ratio IC50” value [40] was 3.32, the IC50 [41] was 460 nM and the GI50 [42] was 640 nM. For the same molecule, the TGI [42] was 1260 nM, the “Ratio IC50” value [43] was 11.2 and the GI50 [44] was 670 nM. For the same molecule, the TGI [44] was 1350 nM, the GI50 [45] was 650 nM and the TGI [45] was 1310 nM. For the same molecule, the “Ratio IC50” value [46] was 4.47, the selectivity ratio [47] was 15.4 and the Activity [48] was “Active”. For the same molecule, the Activity [49] was “Dose-Dependent Effect”.
